Measurements from patent publication US20090246212A1, “DEVELOPMENT OF METHOD FOR SCREENING FOR DRUG CAPABLE OF IMPROVING PRODUCTION OF REGULATORY T CELLS AND METHOD FOR PRODUCING REGULATORY T CELLS USING IMMUNOSUPPRESSIVE MACROLIDE ANTIBIOTIC” (KYOTO UNIVERSITY, priority 2005, published 2009).

Legend:
Format in all cases: cell-based, human
[1] = test system: CD45RA^+CD25^+CD4^+ T cells; assay: Expansion culture of CD45RA^+CD25^+CD4^+ T cells with allogenic PBMCs and IL-2, everolimus added; settings: everolimus 1000 nM from the start of cultivation
Protocol: (§1) CD45RA^+CD25^+CD4^+ T cells or CD45RA^+CD25^−CD4^+ T cells in human peripheral blood (5×10̂4 cells/well) were stimulated with 1×10̂5 cells/well radiated (40 Gy) allogenic PBMCs in a 96-well round-bottomed culture plate containing 200 μl per well of a proliferation medium (AlyS505N (produced by Cell Science & Technology Institute) supplemented with 2% human AB serum) in the presence of human IL-2 (1000 U/ml, produced by Cell Science & Technology Institute).
(§2) Everolimus (100 nM or 1000 nM, produced by Novartis Pharma) was added to the medium from the start of cultivation. The everolimus was purified as follows: Certican 0.25 mg tablet (produced by Novartis Pharma) was milled and dissolved in acetone. Then, the solution was filtered, the filtrate was evaporated while rotating, and the precipitate was vacuum-dried. The extract obtained was dissolved in DMF and separated by HPLC (column C18 4 μm, 150×2.1 mm). After separation, the everolimus was freeze-dried and purified.
(§3) Every 3 to 4 days, half of the medium was replaced with a fresh proliferation medium containing IL-2. If necessary, the cells were separated and repeatedly re-stimulated with radiated (40 Gy) allogenic PBMC every 10 to 14 days. Fifty days after the start of cultivation, the cells were collected and used for functional assay.

[2] = test system: CD45RA^+CD25^−CD4^+ T cells; assay: Expansion culture of CD45RA^+CD25^−CD4^+ T cells with allogenic PBMCs and IL-2, everolimus added; settings: everolimus 100 nM or 1000 nM from the start of cultivation
Protocol: as §1, §2, §3

[3] = test system: CD45RA^+CD25^+CD4^+ T cell line; assay: Suppression assay ([^3H] thymidine uptake) of the everolimus-cultured CD45RA^+CD25^+CD4^+ T cell line; settings: cultivation in the presence of everolimus, 50 days; compared with controls
Protocol: as §1
as §2, with “The extract obtained was dissolved in DMF and separated by HPLC (column C18 4 μm, 150×2.1 mm). After separation, the everolimus was freeze-dried and purified.” left out
(§4) The indicated number of cells of the expanded CD45RA^+CD25^+CD4^+ T cell line or expanded CD45RA^+CD25^−CD4^+ T cell line, alone or along with autologous responder CD4^+ T cells (5×10̂4 cells/well), were stimulated with radiated (40 Gy) PBMCs (1×10̂5 cells/well) obtained from the same individual as the allogenic PBMCs used for the cultivation, in a proliferation medium in a round-bottomed 96-well microplate. […] Subsequently, the cells were recovered, and [^3H] thymidine uptake was measured using 1450 Microbeta TriLux (Wallac).

[4] = test system: CD45RA^+CD25^−CD4^+ T cell line; assay: Suppression assay ([^3H] thymidine uptake) of the everolimus-cultured CD45RA^+CD25^−CD4^+ T cell line; settings: cultivation in the presence of everolimus, 50 days; compared with the control
Protocol: as §1
as §2, with “The extract obtained was dissolved in DMF and separated by HPLC (column C18 4 μm, 150×2.1 mm). After separation, the everolimus was freeze-dried and purified.” left out
as §4

CO[C@H]1C[C@@H]2CC[C@@H](C)[C@@](O)(O2)C(=O)C(=O)N2CCCC[C@H]2C(=O)O[C@H]([C@H](C)C[C@@H]2CC[C@@H](OCCO)[C@H](OC)C2)CC(=O)[C@H](C)/C=C(\C)[C@@H](O)[C@@H](OC)C(=O)[C@H](C)C[C@H](C)/C=C/C=C/C=C/1C [everolimus, 42-O-(2-hydroxy)ethyl-rapamycin]
proliferation of CD45RA^+CD25^+CD4^+ T cells [1]: suppressed | proliferation of CD45RA^+CD25^−CD4^+ T cells [2]: enhanced | T cell line's effect on proliferation of CD4^+ T cells in response to alloantigen-presenting cells [3]: more strongly suppressed | T cell line's effect on proliferation of CD4^+ T cells in response to alloantigen-presenting cells [4]: more strongly suppressed
